Data as given in patent US7718700B2, “Growth factor-binding compounds and methods of use” (Yale University, priority 2004, dated 2010).
Values joined by “and” are separate entries in the source; they are usually repeats but may differ in a detail not shown here. Equal entries are not always repeated. Where two headings read alike, the source gives them in different places.

What was measured:
[1] = tested on: PDGFR; assay: PDGF-stimulated PDGFR tyrosine phosphorylation in NIH 3T3 cells; type: cell-based, mouse
Procedure: (§1) Inhibition of growth factor-dependent receptor tyrosine phosphorylation by GFBs. Starved Flk-1/KDR-overexpressing NIH 3T3 cells (Flk-1/NIH 3T3) or NIH 3T3 cells were pretreated with GFBs for 5 min before stimulation with VEGF (50 ng/ml) or PDGF-BB (10 ng/ml) for 10 min, respectively. The cells were then harvested and lysed, and proteins from the lysates were separated by SDS-PAGE and transferred to nitrocellulose. Membranes then were either immunoblotted with anti-phospho-VEGFR2 antibody (Cell Signaling Technologies, Beverly, Mass.) for activated Flk-1 or anti-phospho-tyrosine antibody (4G10, Upstate Biotechnology, Lake Placid, N.Y.) for activated PDGFR. Phosphotyrosine Flk-1 and PDGFR were quantified using a Bio-Rad Model GS-700 Imaging Densitometer (Bio-Rad Laboratories, Inc, Hercules, Calif.) (Blaskovich, M. A. et al. Nat Biotechnol, 2000, 18:1065-70).

[2] = tested on: VEGFR (Flk-1/KDR); assay: VEGF-stimulated Flk-1 tyrosine phosphorylation in Flk-1/NIH 3T3 cells; type: cell-based, human
Procedure: as §1

[3] = tested on: pancreatic tumors; conditions: Bergers et al. 2003; cited from earlier work
[4] = tested on: metastatic colorectal cancer; conditions: patients with metastatic colorectal cancer; cited from earlier work
[5] = PDGF-BB 10 ng/ml stimulated receptor tyrosine phosphorylation, NIH 3T3 cells; read-out: IC50 (μM) PDGFR
[6] = VEGF 50 ng/ml stimulated Flk-1 tyrosine phosphorylation, read-out: IC50 (μM) VEGFR
[7] = read-out: IC50 (μM) PDGFR; PDGF-BB 10 ng/ml stimulated receptor tyrosine phosphorylation, NIH 3T3 cells
[8] = read-out: IC50 (μM) VEGFR, VEGF 50 ng/ml stimulated Flk-1 tyrosine phosphorylation

| IC50 [1, 5] | IC50 [2, 6] [µM] | Compound | also measured |
| --- | --- | --- | --- |
| 2.62 ± 0.5 µM | 4.96 ± 0.34 | CCCCOc1c2cc(C(=O)Nc3cc(C(=O)O)cc(C(=O)O)c3)cc1Cc1cc(C(=O)Nc3cc(C(=O)O)cc(C(=O)O)c3)cc(c1OCCCC)Cc1cc(C(=O)Nc3cc(C(=O)O)cc(C(=O)O)c3)cc(c1OCCCC)Cc1cc(C(=O)Nc3cc(C(=O)O)cc(C(=O)O)c3)cc(c1OCCCC)C2 [GFB201] | – |
| – | – | CCCCOc1c2cc(C(=O)Nc3cc(C(=O)NC(CC(=O)O)C(=O)O)cc(C(=O)NC(CC(=O)O)C(=O)O)c3)cc1Cc1cc(C(=O)Nc3cc(C(=O)NC(CC(=O)O)C(=O)O)cc(C(=O)NC(CC(=O)O)C(=O)O)c3)cc(c1OCCCC)Cc1cc(C(=O)Nc3cc(C(=O)NC(CC(=O)O)C(=O)O)cc(C(=O)NC(CC(=O)O)C(=O)O)c3)cc(c1OCCCC)Cc1cc(C(=O)Nc3cc(C(=O)NC(CC(=O)O)C(=O)O)cc(C(=O)NC(CC(=O)O)C(=O)O)c3)cc(c1OCCCC)C2 (stereo not shown) [GFB202] | IC50 [1, 7]: 1.39 ± 0.38 µM; IC50 [2, 8]: 11.3 ± 2.9 µM |
| – | 19.8 ± 2.9 | CCCCOc1c2cc(C(=O)Nc3cc(C(=O)NCCC(=O)O)cc(C(=O)NCCC(=O)O)c3)cc1Cc1cc(C(=O)Nc3cc(C(=O)NCCC(=O)O)cc(C(=O)NCCC(=O)O)c3)cc(c1OCCCC)Cc1cc(C(=O)Nc3cc(C(=O)NCCC(=O)O)cc(C(=O)NCCC(=O)O)c3)cc(c1OCCCC)Cc1cc(C(=O)Nc3cc(C(=O)NCCC(=O)O)cc(C(=O)NCCC(=O)O)c3)cc(c1OCCCC)C2 [GFB203] | – |
| – | – | CCCCOc1c2cc(C(=O)Nc3cc(C(=O)NC(CC(=O)O)C(=O)O)cc(C(=O)NC(Cc4ccc(O)cc4)C(=O)O)c3)cc1Cc1cc(C(=O)Nc3cc(C(=O)NC(CC(=O)O)C(=O)O)cc(C(=O)NC(Cc4ccc(O)cc4)C(=O)O)c3)cc(c1OCCCC)Cc1cc(C(=O)Nc3cc(C(=O)NC(CC(=O)O)C(=O)O)cc(C(=O)NC(Cc4ccc(O)cc4)C(=O)O)c3)cc(c1OCCCC)Cc1cc(C(=O)Nc3cc(C(=O)NC(CC(=O)O)C(=O)O)cc(C(=O)NC(Cc4ccc(O)cc4)C(=O)O)c3)cc(c1OCCCC)C2 (stereo not shown) [GFB205] | IC50 [2, 8]: 5.86 ± 0.68 µM |
| – | 18.4 ± 2.72 | CCCCOc1c2cc(C(=O)Nc3cc(C(=O)NCCC(=O)O)cc(C(=O)N[C@@H](Cc4ccc(O)cc4)C(=O)O)c3)cc1Cc1cc(C(=O)Nc3cc(C(=O)NCCC(=O)O)cc(C(=O)N[C@@H](Cc4ccc(O)cc4)C(=O)O)c3)cc(c1OCCCC)Cc1cc(C(=O)Nc3cc(C(=O)NCCC(=O)O)cc(C(=O)N[C@@H](Cc4ccc(O)cc4)C(=O)O)c3)cc(c1OCCCC)Cc1cc(C(=O)Nc3cc(C(=O)NCCC(=O)O)cc(C(=O)N[C@@H](Cc4ccc(O)cc4)C(=O)O)c3)cc(c1OCCCC)C2 [GFB207] | – |
| 0.84 ± 0.06 µM | – | CCCCOc1c2cc(C(=O)Nc3cc(C(=O)NCCC(=O)O)cc(C(=O)N[C@@H](Cc4ccc(OCC(=O)O)cc4)C(=O)O)c3)cc1Cc1cc(C(=O)Nc3cc(C(=O)NCCC(=O)O)cc(C(=O)N[C@@H](Cc4ccc(OCC(=O)O)cc4)C(=O)O)c3)cc(c1OCCCC)Cc1cc(C(=O)Nc3cc(C(=O)NCCC(=O)O)cc(C(=O)N[C@@H](Cc4ccc(OCC(=O)O)cc4)C(=O)O)c3)cc(c1OCCCC)Cc1cc(C(=O)Nc3cc(C(=O)NCCC(=O)O)cc(C(=O)N[C@@H](Cc4ccc(OCC(=O)O)cc4)C(=O)O)c3)cc(c1OCCCC)C2 [GFB208] | – |
| 2.9 µM and 2.91 µM | 5.58 ± 4.11 | CCCCOc1c2cc(C(=O)Nc3cc(C(=O)O)cc(C(=O)OC)c3)cc1Cc1cc(C(=O)Nc3cc(C(=O)O)cc(C(=O)OC)c3)cc(c1OCCCC)Cc1cc(C(=O)Nc3cc(C(=O)O)cc(C(=O)OC)c3)cc(c1OCCCC)Cc1cc(C(=O)Nc3cc(C(=O)O)cc(C(=O)OC)c3)cc(c1OCCCC)C2 [GFB209] | – |
| – | – | CCCCOc1c2cc(C(=O)Nc3cc(C(=O)O)cc(C(=O)OC(C)(C)C)c3)cc1Cc1cc(C(=O)Nc3cc(C(=O)O)cc(C(=O)OC(C)(C)C)c3)cc(c1OCCCC)Cc1cc(C(=O)Nc3cc(C(=O)O)cc(C(=O)OC(C)(C)C)c3)cc(c1OCCCC)Cc1cc(C(=O)Nc3cc(C(=O)O)cc(C(=O)OC(C)(C)C)c3)cc(c1OCCCC)C2 [GFB210] | IC50 [1, 7]: 0.35 ± 0.31 µM; IC50 [2, 8]: 4.54 ± 0.55 µM |
| – | – | CCCCOc1c2cc(C(=O)Nc3cc(C(=O)O)cc(C(=O)NCc4ccccc4)c3)cc1Cc1cc(C(=O)Nc3cc(C(=O)O)cc(C(=O)NCc4ccccc4)c3)cc(c1OCCCC)Cc1cc(C(=O)Nc3cc(C(=O)O)cc(C(=O)NCc4ccccc4)c3)cc(c1OCCCC)Cc1cc(C(=O)Nc3cc(C(=O)O)cc(C(=O)NCc4ccccc4)c3)cc(c1OCCCC)C2 [GFB211] | IC50 [1, 7]: 1.34 ± 0.32 µM; IC50 [2, 8]: 13 ± 0.49 µM |
| 0.29 ± 0.08 µM | > 10 | CCCCOc1c2cc(C(=O)Nc3cc(C(=O)O)cc(C(=O)NC4CCCCC4)c3)cc1Cc1cc(C(=O)Nc3cc(C(=O)O)cc(C(=O)NC4CCCCC4)c3)cc(c1OCCCC)Cc1cc(C(=O)Nc3cc(C(=O)O)cc(C(=O)NC4CCCCC4)c3)cc(c1OCCCC)Cc1cc(C(=O)Nc3cc(C(=O)O)cc(C(=O)NC4CCCCC4)c3)cc(c1OCCCC)C2 [GFB212] | – |
| 0.57 ± 0.06 µM | 0.85 ± 0.44 | CCCCOc1c2cc(C(=O)Nc3cc(C(=O)O)cc(C(=O)NC(C)(C)C)c3)cc1Cc1cc(C(=O)Nc3cc(C(=O)O)cc(C(=O)NC(C)(C)C)c3)cc(c1OCCCC)Cc1cc(C(=O)Nc3cc(C(=O)O)cc(C(=O)NC(C)(C)C)c3)cc(c1OCCCC)Cc1cc(C(=O)Nc3cc(C(=O)O)cc(C(=O)NC(C)(C)C)c3)cc(c1OCCCC)C2 [GFB213] | – |
| 0.17 ± 0.02 µM | > 10 | CCCCOc1c2cc(C(=O)Nc3cc(C(=O)O)cc(C(=O)NC(C)C)c3)cc1Cc1cc(C(=O)Nc3cc(C(=O)O)cc(C(=O)NC(C)C)c3)cc(c1OCCCC)Cc1cc(C(=O)Nc3cc(C(=O)O)cc(C(=O)NC(C)C)c3)cc(c1OCCCC)Cc1cc(C(=O)Nc3cc(C(=O)O)cc(C(=O)NC(C)C)c3)cc(c1OCCCC)C2 [GFB214] | – |
| 0.21 ± 0.13 µM | > 10 | CCCCOc1c2cc(C(=O)Nc3cc(C(=O)O)cc(C(=O)NCCC)c3)cc1Cc1cc(C(=O)Nc3cc(C(=O)O)cc(C(=O)NCCC)c3)cc(c1OCCCC)Cc1cc(C(=O)Nc3cc(C(=O)O)cc(C(=O)NCCC)c3)cc(c1OCCCC)Cc1cc(C(=O)Nc3cc(C(=O)O)cc(C(=O)NCCC)c3)cc(c1OCCCC)C2 [GFB215] | – |
| 0.15 ± 0.01 µM | > 10 | C=CCNC(=O)c1cc(NC(=O)c2cc3c(OCCCC)c(c2)Cc2cc(C(=O)Nc4cc(C(=O)O)cc(C(=O)NCC=C)c4)cc(c2OCCCC)Cc2cc(C(=O)Nc4cc(C(=O)O)cc(C(=O)NCC=C)c4)cc(c2OCCCC)Cc2cc(C(=O)Nc4cc(C(=O)O)cc(C(=O)NCC=C)c4)cc(c2OCCCC)C3)cc(C(=O)O)c1 [GFB216] | – |
| – | – | CCCCOc1c2cc(C(=O)Nc3cc(C(=O)OCc4ccccc4)cc(C(=O)OC(C)(C)C)c3)cc1Cc1cc(C(=O)Nc3cc(C(=O)OCc4ccccc4)cc(C(=O)OC(C)(C)C)c3)cc(c1OCCCC)Cc1cc(C(=O)Nc3cc(C(=O)OCc4ccccc4)cc(C(=O)OC(C)(C)C)c3)cc(c1OCCCC)Cc1cc(C(=O)Nc3cc(C(=O)OCc4ccccc4)cc(C(=O)OC(C)(C)C)c3)cc(c1OCCCC)C2 [GFB217] | inhibition of PDGF signaling, in words [1]: did not have a significant activity; IC50 [1, 7]: > 10 µM; IC50 [2, 8]: > 10 µM |
| 0.54 ± 0.15 µM | > 10 | CCCCOc1c2cc(C(=O)Nc3cc(C(=O)O)cc(C(=O)Nc4ccncc4)c3)cc1Cc1cc(C(=O)Nc3cc(C(=O)O)cc(C(=O)Nc4ccncc4)c3)cc(c1OCCCC)Cc1cc(C(=O)Nc3cc(C(=O)O)cc(C(=O)Nc4ccncc4)c3)cc(c1OCCCC)Cc1cc(C(=O)Nc3cc(C(=O)O)cc(C(=O)Nc4ccncc4)c3)cc(c1OCCCC)C2 [GFB218] | – |
| 0.53 ± 0.15 µM | > 10 | CCCCOc1c2cc(C(=O)Nc3cc(C(=O)O)cc(C(=O)Nc4cccc5ccccc45)c3)cc1Cc1cc(C(=O)Nc3cc(C(=O)O)cc(C(=O)Nc4cccc5ccccc45)c3)cc(c1OCCCC)Cc1cc(C(=O)Nc3cc(C(=O)O)cc(C(=O)Nc4cccc5ccccc45)c3)cc(c1OCCCC)Cc1cc(C(=O)Nc3cc(C(=O)O)cc(C(=O)Nc4cccc5ccccc45)c3)cc(c1OCCCC)C2 [GFB219] | – |
| – | – | Cc1cc(C)c(/C=C2\C(=O)Nc3ccccc32)[nH]1 [SU5416] | effect on pancreatic tumors [3]: suppresses early, but not late, development of pancreatic tumors |
| – | – | Cc1[nH]c(/C=C2\C(=O)Nc3ccccc32)c(C)c1CCC(=O)O [SU6668] | effect on pancreatic tumors [3]: induced regression of advanced pancreatic tumor at late stage of development |
| – | – | AVASTIN: humanized anti-VEGF monoclonal antibody | increase of median survival [4]: 5 months |
